This passage reports inhibition results from US7511145B2 (Genelabs Technologies, Inc., priority 2003, dated 2009).

The test has as its target T1, HCV-NS5b (Hepatitis C virus genotype 1b, UniProt Q9WMX2).
T1 construct: (His)6 (C); made in house; host or cells: XL-1 cells (E. coli), IPTG-inducible plasmid, nickel-NTA purification
Put plainly: HCV-NS5b enzyme assay (incorporation of radiolabeled UTP). It is filed as biochemical. The conditions noted are these: for inhibition at 33 µM: enzyme inhibition at compound concentration of 33 uM; for inhibition at 100 µM: read-out: % inh@100, enzyme inhibition at compound concentration of 100 uM. From the text:
The coding sequence of NS5b protein was cloned by PCR from pFKI389luc/NS3-3′/ET as described by Lohmann, V., et al. (1999) Science 285, 110-113 using the following primers: […]
The cloned fragment was missing the C terminus 21 amino acid residues. The cloned fragment was inserted into an IPTG-inducible expression plasmid that provided an epitope tag (His)6 at the carboxy terminus of the protein.
The recombinant enzyme was expressed in XL-1 cells and after induction of expression, the protein was purified using affinity chromatography on a nickel-NTA column. Storage condition was 10 mM Tris-HCl pH 7.5, 50 mM NaCl, 0.1 mM EDTA, 1 mM DTT, 20% glycerol at −20° C.
The polymerase activity was assayed by measuring incorporation of radiolabeled UTP into a RNA product using a biotinylated, heteropolymeric template, which included a portion of the HCV genome. Typically, the assay mixture (50 μL) contained 10 mM Tris-HCl (pH 7.5), 5 mM MgCl2, 0.2 mM EDTA, 10 mM KCl, 1 unit/μL RNAsin, 1 mM DTT, 10 μM each of NTP, including [^3H]-UTP, and 10 ng/μL heteropolymeric template. Test compounds were initially dissolved in 100% DMSO and further diluted in aqueous buffer containing 5% DMSO. Typically, compounds were tested at concentrations between 1 nM and 100 μM. Reactions were started with addition of enzyme and allowed to continue at 37° C. for 2 hours. Reactions were quenched with 8 μL of 100 mM EDTA and reaction mixtures (30 μL) were transferred to streptavidin-coated scintillation proximity microtiter plates (FlashPlates) and incubated at 4° C. overnight. Incorporation of radioactivity was determined by scintillation counting.
Shown in Table IX below are the values for enzyme inhibition measured at compound concentrations of 100 and 33 uM, (% inh@[…] and % inh@33, respectively). The percent inhibition values are calculated from the differential incorporation of radioactivity compared to a control reaction without compound: % inhibition=100−[(CountsINH−CountsBKG)/CountsCTRL−CountsBKG)×100 where CountsINH is the signal of the testwell with inhibitor, CountsBKG is the background signal and CountsCTRL is the signal of a testwell without inhibitor.

As to `O=C(N[C@@H](Cc1ccccc1)C(=O)O)c1ccc2c(c1)nc(-c1ccc3nc(-c4ccccc4)cnc3c1)n2C1CCCCC1` [Compound 246, 2-{[1-Cyclohexyl-2-(2-phenyl-quinoxalin-6-yl)-1H-benzoimidazole-5-carbonyl]-amino}-3-phenyl-propionic acid], the inhibition at 33 µM turned out to be 95.9% and the inhibition at 100 µM worked out at 96.4%.
In the case of `O=C(N[C@@H](Cc1c[nH]cn1)C(=O)O)c1ccc2c(c1)nc(-c1ccc3nc(-c4ccccc4)cnc3c1)n2C1CCCCC1` [Compound 247, 2-{[1-Cyclohexyl-2-(2-phenyl-quinoxalin-6-yl)-1H-benzoimidazole-5-carbonyl]-amino}-3-(1H-imidazol-4-yl)-propionic acid], the inhibition at 33 µM is 66.8% and the inhibition at 100 µM amounted to 94.2%.
On to `O=C(O)[C@@H]1C[C@@H](O)CN1C(=O)c1ccc2c(c1)nc(-c1ccc3nc(-c4ccccc4)cnc3c1)n2C1CCCCC1` [Compound 248, 1-[1-Cyclohexyl-2-(2-phenyl-quinoxalin-6-yl)-1H-benzoimidazole-5-carbonyl]-4-hydroxy-pyrrolidine-2-carboxylic acid], for which the inhibition at 33 µM came to 47.4% and the inhibition at 100 µM worked out at 86.8%.
In the same order, the values of `CC[C@H](C)[C@H](NC(=O)c1ccc2c(c1)nc(-c1ccc3nc(-c4ccccc4)cnc3c1)n2C1CCCCC1)C(=O)O` [Compound 249, 2-{[1-Cyclohexyl-2-(2-phenyl-quinoxalin-6-yl)-1H-benzoimidazole-5-carbonyl]-amino}-3-methyl-pentanoic acid] are 94.5% and 97.2%.
For the compound `c1ccc(-c2cnc3cc(-c4nc5cc(-c6nn[nH]n6)ccc5n4C4CCCCC4)ccc3n2)cc1` [Compound 258, 6-[1-cyclohexyl-5-(1H-tetrazol-5-yl)-1H-benzimidazol-2-yl]-2-phenylquinoxaline], the inhibition at 33 µM was determined as 97% and the inhibition at 100 µM turned out to be 98%.
On the same counts, the results for `O=C(c1ccc(-c2ccc(Cl)cc2)c(-c2ccc3cc(-c4nc5cc(-c6nnn[nH]6)ccc5n4C4CCCCC4)ccc3n2)c1)N1CCCC1` [Compound 259, (4′-chloro-2-{6-[1-cyclohexyl-5-(1H-tetrazol-5-yl)-1H-benzoimidazol-2-yl]-quinolin-2-yl}-biphenyl-4-yl)-pyrrolidin-1-yl-methanone] are 99.7% and 99.4%.
Consider `C[C@H](NC(=O)c1ccc2c(c1)nc(-c1ccc3nc(-c4ccccc4)cnc3c1)n2C1CCCCC1)C(=O)O` [Compound 310, 2-[(2-(2-phenyl-quinoxalin-6-yl)-1-cyclohexyl-1H-benzoimidazole-5-carbonyl)-amino]-propionic acid], for which the inhibition at 33 µM stood at 83.2% and the inhibition at 100 µM was determined as 98.3%.
As for `O=C(O)CNC(=O)c1ccc2c(c1)nc(-c1ccc3nc(-c4ccccc4)cnc3c1)n2C1CCCCC1` [Compound 311, {[1-Cyclohexyl-2-(2-phenyl-quinoxalin-6-yl)-1H-benzoimidazole-5-carbonyl]-amino}-acetic acid], the inhibition at 33 µM came to 83% and the inhibition at 100 µM was determined as 93.3%.
On the same counts, the results for `O=C(O)c1ccc2c(c1)nc(-c1ccc3cc(-c4ccccc4)cnc3c1)n2C1CCCCC1` [Compound 351, 1-cyclohexyl-2-(3-phenyl-quinolin-7-yl)-1H-benzoimidazole-5-carboxylic acid] are 94.9% and 98.1%.
On the same counts, the results for `O=C(O)c1ccc2c(c1)nc(-c1ccc3nc(-c4ccccc4Br)ccc3c1)n2C1CCCCC1` [Compound 352, 2-[2-(2-bromo-phenyl)-quinolin-6-yl]-1-cyclohexyl-1H-benzoimidazole-5-carboxylic acid] are 94.2% and 98.8%.
`O=C(O)c1ccc2[nH]c(-c3ccc4nc(-c5ccccc5-c5ccc(Cl)cc5)ccc4c3)nc2c1` [Compound 353, 2-[2-(4′-Chloro-biphen-2-yl)-quinolin-6-yl]-1H-benzoimidazole-5-carboxylic acid]: the inhibition at 33 µM turned out to be 67.3% and the inhibition at 100 µM was found to be 67.5%.
On the same counts, the results for `O=C(O)c1ccc2c(c1)nc(-c1ccc3nc(-c4cc(Br)ccc4O)ccc3c1)n2C1CCCCC1` [Compound 354, 2-[2-(5-Bromo-2-hydroxy-phenyl)-quinolin-6-yl]-1-cyclohexyl-1H-benzoimidazole-5-carboxylic acid] are 98% and 101%.
Regarding `O=C(O)c1ccc2c(c1)nc(-c1ccc3nc(-c4cccnc4)ccc3c1)n2C1CCCCC1` [Compound 355, 1-cyclohexyl-2-(2-pyridin-3-yl-quinolin-6-yl)-1H-benzoimidazole-5-carboxylic acid], the inhibition at 33 µM stood at 72.3% and the inhibition at 100 µM came out at 89.3%.
Take `COc1ccc(-c2ccc(Cl)cc2)c(-c2ccc3cc(-c4nc5cc(C(=O)O)ccc5n4C4CCCCC4)ccc3n2)c1` [Compound 356, 2-[2-(4′-Chloro-4-methoxy-biphen-2-yl)-quinolin-6-yl]-1-cyclohexyl-1H-benzoimidazole-5-carboxylic acid]: the inhibition at 33 µM was 101% and the inhibition at 100 µM came to 100%.
Turning to `O=C(O)c1ccc2c(c1)nc(-c1ccc3nc(-c4cccc5ccccc45)ccc3c1)n2C1CCCCC1` [Compound 357, 1-cyclohexyl-2-(2-naphthalen-1-yl-quinolin-6-yl)-1H-benzoimidazole-5-carboxylic acid], the inhibition at 33 µM turned out to be 98.8% and the inhibition at 100 µM is 101%.
On the same counts, the results for `Nc1ccc(-c2ccc3cc(-c4nc5cc(C(=O)O)ccc5n4C4CCCCC4)ccc3n2)cc1` [Compound 358, 2-[2-(4-amino-phenyl)-quinolin-6-yl]-1-cyclohexyl-1H-benzoimidazole-5-carboxylic acid] are 85.1% and 95.3%.
Turning to `O=C(O)COc1cccc(-c2ccc3cc(-c4nc5cc(C(=O)O)ccc5n4C4CCCCC4)ccc3n2)c1` [Compound 359, 2-[2-(3-Carboxymethoxy-phenyl)-quinolin-6-yl]-1-cyclohexyl-1H-benzoimidazole-5-carboxylic acid], the inhibition at 33 µM came to 97.3% and the inhibition at 100 µM worked out at 99.6%.
On to `O=C(O)c1ccc2c(c1)nc(-c1ccc3nc(-c4cc(OCC(=O)N5CCCC5)ccc4-c4ccccc4)ccc3c1)n2C1CCCCC1` [Compound 360, 1-cyclohexyl-2-{2-[4-(2-oxo-2-pyrrolidin-1-yl-ethoxy)-biphen-2-yl]-quinolin-6-yl}-1H-benzoimidazole-5-carboxylic acid], for which the inhibition at 33 µM was determined as 97.6% and the inhibition at 100 µM was determined as 97.9%.
For the compound `NC(=O)CNC(=O)c1ccc(-c2ccc(Cl)cc2)c(-c2ccc3cc(-c4nc5cc(C(=O)O)ccc5n4C4CCCCC4)ccc3n2)c1` [Compound 361, 2-{2-[4-(Carbamoylmethyl-carbamoyl)-4′-chloro-biphen-2-yl]-quinolin-6-yl}-1-cyclohexyl-1H-benzoimidazole-5-carboxylic acid], the inhibition at 33 µM amounted to 100% and the inhibition at 100 µM is 98.7%.
On to `CNC(=O)c1ccc(-c2ccccc2)c(-c2ccc3cc(-c4nc5cc(C(=O)O)ccc5n4C4CCCCC4)ccc3n2)c1` [Compound 362, 1-cyclohexyl-2-[2-(4-methylcarbamoyl-biphen-2-yl)-quinolin-6-yl]-1H-benzoimidazole-5-carboxylic acid], for which the inhibition at 33 µM is 101% and the inhibition at 100 µM turned out to be 98.4%.
In the same order, the values of `Nc1c(Cl)cc(-c2ccc3cc(-c4nc5cc(C(=O)O)ccc5n4C4CCCCC4)ccc3n2)cc1Cl` [Compound 363, 2-[2-(4-amino-3,5-dichloro-phenyl)-quinolin-6-yl]-1-cyclohexyl-1H-benzoimidazole-5-carboxylic acid] are 98.4% and 101%.
On the same counts, the results for `O=C(O)c1ccc2c(c1)nc(-c1ccc3nc(-c4ccc(O)cc4O)ccc3c1)n2C1CCCCC1` [Compound 364, 1-cyclohexyl-2-[2-(2,4-dihydroxy-phenyl)-quinolin-6-yl]-1H-benzoimidazole-5-carboxylic acid] are 98.6% and 101%.
On the same counts, the results for `COc1ccc(-c2ccc(C#N)cc2)c(-c2ccc3cc(-c4nc5cc(C(=O)O)ccc5n4C4CCCCC4)ccc3n2)c1` [Compound 365, 2-[2-(4′-cyano-4-methoxy-biphen-2-yl)-quinolin-6-yl]-1-cyclohexyl-1H-benzoimidazole-5-carboxylic acid] are 102% and 103%.
